Among the test systems are CCRF-CEM leukemia; HOP-92 NSCLC; KM12 colon; MOLT-4 leukemia; NCI-H226 lung; OVCAR-4 ovarian; OVCAR-5 ovarian; SK-MEL-2 melanoma; SNB-19 CNS; TK-10 renal.
Assay in all cases: NCI-60 cell line screen, 48 h

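All cell lines were grown in 96-well plates and treated with compound for 48 hours. GI50 marks 50% less growth. Definition used: TGI = concentration required for complete inhibition of growth.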

As for `C[N+](C)=c1ccc2nc3c(cc(NCCCNc4cc5oc6cc(=[N+](C)C)ccc-6nc5c5ccccc45)c4ccccc43)oc-2c1`, the GI50 was 4.39 µM with CCRF-CEM leukemia; 14.7 µM with HOP-92 NSCLC; 2.55 µM in the assay with KM12 colon; 3 µM with MOLT-4 leukemia; 22.1 µM in the assay with NCI-H226 lung; 0.715 µM with OVCAR-4 ovarian. For the same compound, the GI50 with OVCAR-5 ovarian is 2.85 µM; in the assay on SK-MEL-2 melanoma it was 15 µM; in the assay with SNB-19 CNS it was 3.6 µM; in the assay with TK-10 renal, 17.3 µM. For the same compound, the TGI came to 21.7 µM in the assay with CCRF-CEM leukemia; 40.1 µM with HOP-92 NSCLC; 8.81 µM with KM12 colon; 25 µM in the assay with MOLT-4 leukemia; 63.7 µM in the assay on NCI-H226 lung; 2.08 µM in the assay with OVCAR-4 ovarian. For the same compound, the TGI in the assay with OVCAR-5 ovarian is 10.9 µM; in the assay with SK-MEL-2 melanoma, 45.7 µM; in the assay with SNB-19 CNS it was 19.4 µM; in the assay with TK-10 renal, 39.3 µM.

In the case of `COC(C)C(O)(C(=O)OCC1=CCN2CCC(O)C12)C(C)(C)O` (stereo not drawn), the TGI in the assay on CCRF-CEM leukemia, in the assay on HOP-92 NSCLC, in the assay with KM12 colon, with MOLT-4 leukemia, with NCI-H226 lung and in the assay with OVCAR-4 ovarian was over 100 µM in each case. For the same compound, the TGI with OVCAR-5 ovarian, with SK-MEL-2 melanoma, in the assay on SNB-19 CNS and in the assay with TK-10 renal was over 100 µM in each case.

Take `Cc1cccc2c1[nH]c(=O)c1c3ccccc3cn21`: the GI50 with CCRF-CEM leukemia was 1.2 µM; with HOP-92 NSCLC, 3.97 µM; with KM12 colon, 3.38 µM; in the assay with MOLT-4 leukemia, 1.81 µM; in the assay on NCI-H226 lung, 3.25 µM; in the assay with OVCAR-4 ovarian it was 6.73 µM. Also, the GI50 with OVCAR-5 ovarian is 17.9 µM; with SK-MEL-2 melanoma it was 14.4 µM; in the assay on SNB-19 CNS, 15.6 µM; with TK-10 renal it was 26.8 µM. In addition, the TGI with CCRF-CEM leukemia was 12.6 µM; with HOP-92 NSCLC, 32.2 µM; in the assay with KM12 colon, 22.8 µM; with MOLT-4 leukemia, 5.56 µM; in the assay on NCI-H226 lung, 27.6 µM; in the assay on OVCAR-4 ovarian it was over 100 µM. In addition, the TGI in the assay with OVCAR-5 ovarian was 65.4 µM; with SK-MEL-2 melanoma, over 100 µM; with SNB-19 CNS it was 48 µM; in the assay with TK-10 renal, 86.2 µM.

Take `CS(=O)(=O)N(c1cc(-c2ccc3ncnc(Nc4ccc(F)c(Cl)c4)c3c2)cnc1Cl)S(C)(=O)=O`: the GI50 in the assay with CCRF-CEM leukemia is 0.527 µM; with HOP-92 NSCLC, 0.191 µM; in the assay with KM12 colon it was 2.43 µM; in the assay on MOLT-4 leukemia, 1.18 µM; in the assay with NCI-H226 lung it was 1.9 µM; with OVCAR-4 ovarian, 2.33 µM. Besides, the GI50 in the assay with OVCAR-5 ovarian is 0.795 µM; with SK-MEL-2 melanoma, 1.16 µM; in the assay with SNB-19 CNS, 0.897 µM; in the assay on TK-10 renal it was 0.44 µM. Besides, the TGI in the assay on CCRF-CEM leukemia was over 100 µM; in the assay with HOP-92 NSCLC, 1.73 µM; with KM12 colon it was 9.81 µM; with MOLT-4 leukemia, 7.74 µM; with NCI-H226 lung it was 24.3 µM; with OVCAR-4 ovarian it was 19.4 µM. The TGI in the assay on OVCAR-5 ovarian was 10.2 µM; in the assay on SK-MEL-2 melanoma it was 4.01 µM; in the assay on SNB-19 CNS, 9.9 µM; with TK-10 renal, 3.73 µM.

Take `CC[C@H](C)[C@H](NC(=O)c1cccn1C)C(=O)N(C)[C@H](C[C@@H](OC(C)=O)c1nc(C(=O)N[C@@H](Cc2ccccc2)C[C@H](C)C(=O)OC)cs1)C(C)C`: the GI50 with CCRF-CEM leukemia is 0.138 µM; in the assay on HOP-92 NSCLC, 0.13 µM; with KM12 colon, 0.106 µM; in the assay with MOLT-4 leukemia, 0.429 µM; in the assay with NCI-H226 lung, 1.17 µM; in the assay with OVCAR-4 ovarian, 0.68 µM. Besides, the GI50 in the assay on OVCAR-5 ovarian is 0.65 µM; in the assay on SK-MEL-2 melanoma, 0.347 µM; in the assay on SNB-19 CNS it was 0.196 µM; with TK-10 renal it was 2.61 µM. In addition, the TGI is over 33.3 µM with CCRF-CEM leukemia; 5.08 µM with HOP-92 NSCLC; over 33.3 µM in the assay with KM12 colon; over 33.3 µM in the assay on MOLT-4 leukemia; over 33.3 µM in the assay with NCI-H226 lung; over 33.3 µM with OVCAR-4 ovarian. In addition, the TGI with OVCAR-5 ovarian, in the assay on SK-MEL-2 melanoma, in the assay on SNB-19 CNS and in the assay with TK-10 renal was over 33.3 µM throughout.

As for `CCCCN(CCCC)CC(C(C)=O)C(c1ccccc1)c1c(O)c2ccccc2oc1=O` (stereo not drawn), the TGI in the assay on CCRF-CEM leukemia, in the assay with HOP-92 NSCLC, with KM12 colon, in the assay on MOLT-4 leukemia, in the assay on NCI-H226 lung and in the assay with OVCAR-4 ovarian was over 100 µM each time. The TGI with OVCAR-5 ovarian, in the assay with SK-MEL-2 melanoma, in the assay with SNB-19 CNS and in the assay with TK-10 renal was over 100 µM throughout.

As to `COc1ccc(S(=O)(=O)N(C(C)=O)c2ccccc2/C=C/c2cc[n+]([O-])cc2)cc1`, the GI50 was 0.762 µM in the assay with CCRF-CEM leukemia; 0.335 µM in the assay on KM12 colon; 1.25 µM in the assay with MOLT-4 leukemia; 2.48 µM in the assay on NCI-H226 lung; over 6.79 µM with OVCAR-4 ovarian; 3.26 µM in the assay on OVCAR-5 ovarian. Moreover, the values for the GI50 in the assay with SK-MEL-2 melanoma and with SNB-19 CNS were 0.54 µM and 0.418 µM, respectively. Moreover, the TGI in the assay with CCRF-CEM leukemia is over 7.66 µM; in the assay on HOP-92 NSCLC, over 10 µM; in the assay on KM12 colon, over 10 µM; in the assay on MOLT-4 leukemia, over 10 µM; with NCI-H226 lung, over 10 µM; in the assay on OVCAR-4 ovarian, over 10 µM. For the same compound, the TGI with OVCAR-5 ovarian, in the assay on SK-MEL-2 melanoma, in the assay on SNB-19 CNS and in the assay on TK-10 renal was over 10 µM each time.

Take `N#Cc1cccc(N2C(=O)C3C4C=CC(C3C2=O)C2C(=O)N(c3cccc(C#N)c3)C(=O)C42)c1` (stereo not drawn): the TGI was 53.7 µM in the assay with CCRF-CEM leukemia; 31.6 µM in the assay on HOP-92 NSCLC; over 56.2 µM in the assay on KM12 colon; 50.2 µM in the assay with MOLT-4 leukemia; over 63.1 µM in the assay with NCI-H226 lung; over 63.1 µM with OVCAR-4 ovarian. Further, the TGI in the assay on OVCAR-5 ovarian is over 63.1 µM; in the assay with SK-MEL-2 melanoma, 34.7 µM; in the assay with SNB-19 CNS, over 80.1 µM; in the assay on TK-10 renal it was 50 µM.

On to `COc1cc(CNc2oc(-c3ccccc3)c(-c3ccccc3)c2C#N)cc(CN2CCN(C)CC2)c1O`, for which the GI50 was 2.85 µM with CCRF-CEM leukemia; 2.34 µM in the assay on HOP-92 NSCLC; 1.9 µM with KM12 colon; 1.96 µM in the assay with MOLT-4 leukemia; 2.48 µM in the assay on NCI-H226 lung; 1.86 µM with OVCAR-4 ovarian. Moreover, the GI50 is 1.73 µM in the assay on OVCAR-5 ovarian, 2.17 µM with SK-MEL-2 melanoma, 1.81 µM in the assay on SNB-19 CNS and 1.62 µM with TK-10 renal. Also, the TGI in the assay with CCRF-CEM leukemia was found to be 10 µM; with HOP-92 NSCLC, 10.2 µM; in the assay with KM12 colon, 3.55 µM; with MOLT-4 leukemia, 4.24 µM; in the assay on NCI-H226 lung, 6.75 µM; in the assay on OVCAR-4 ovarian it was 3.99 µM. Also, the TGI in the assay with OVCAR-5 ovarian worked out at 3.55 µM; in the assay on SK-MEL-2 melanoma it was 4.56 µM; in the assay with SNB-19 CNS, 3.33 µM; in the assay with TK-10 renal it was 3.34 µM.

Source of the values: PubChem BioAssay (NCI).
